Experimental data as given in US12378202B2, “Tetrahydrobenzoazepinones and related analogs for inhibiting YAP/TAZ-TEAD” (THE KATHOLIEKE UNIVERSITEIT LEUVEN, priority 2021, dated 2025).

Experiments:
Assay type in all cases: cell-based
[1] = system: YAP/TAZ-TEAD transcription; test: Reporter gene assay (TEAD-responsive element luciferase reporter in Hek293T cells) for inhibition of YAP/TAZ-TEAD transcription; details: 24 hours incubation
Procedure: Hek293T cells are cultured in DMEM supplemented with 10% fetal bovine serum, Sodium pyruvate, Sodium bicarbonate, L-glutamine. The cells are harvested and transiently transfected with TEAD-responsive element luciferase reporter. Transfected cells are plated in 384-wells plate containing pre-diluted compounds. After 24 hours incubation at 37° C./5% CO2, assay plates were cooled down to RT and levelled to an equal volume per well, prior to the addition of 25 uL luciferase substrate SteadyLite (Perkin Elmer)/well. The plate was shaken for 10 min at 600 rpm, centrifuged for 1 min at 500 rpm and measured with an Envision reader (PerkinElmer). The amount of relative light units produced by the TEAD reporter is used to calculated percent of inhibition.
The percent of reporter inhibition was calculated in the presence of a positive control inhibitor (100% inhibition)versus a condition with the presence of the vehicle basal activity of the reporter (0% inhibition). The ability of a test compound to inhibit this activity was determined as:
Percentage inhibition=[1-((RLU determined in the presence of vehicle−RLU determined for sample with test compound present) divided by (RLU determined in the presence of vehicle−RLU determined for sample with positive control inhibitor))]*100
The activities of example compounds tested are depicted in Table 3. The activity ranges A, B and C refer to IC50 values in the reporter gene assay as follows: “A”: IC50<1 μM; “B”: 1 μM≤IC50≤20 μM and “C”: IC50>20 μM; NT=not tested.

NCI-H2052 = test: Mesothelioma cell line proliferation assay (ATPlite), NCI-H2052; details: Homo sapiens, 144 h; NCI-H2052 mesothelioma cells, 6 days incubation, ATPlite cell viability
Procedure: (§1) Mesothelioma cell lines, NCI-H226 and NCI-H2052 (all sourced from the ATCC cell culture collection) are plated in 96-well plates (Corning® 96 Well White Polystyrene Microplate clear flat bottom, white polystyrene (TC-Treated)), at 1500 cells/well in full medium (RPMI 1640 ATCC modification with L-glutamine, HEPES, Phenol Red, Sodium Pyruvate, High glucose, Low sodium bicarbonate and 10% fetal bovine serum). Cells are incubated overnight at 37° C. in an incubator with 5% CO2. Then compounds, dissolved in DMSO, are added in dose-response. Cells are incubated with compound dilutions for another 6 days at 37° C. in an incubator with 5% CO2. Cell viability is quantitated using the ATPlite kit (Perkin-Elmer) and the luminescence is read-out using an Envision instrument (Perkin-Elmer). The amount of relative light units produced using the ATPlite kit is used to calculated percent of inhibition.
(§2) The activities of some example compounds are depicted in Table 4. The activity ranges A, B and C refer to EC50 values in the mesothelioma cell line proliferation assay as described as follows: “A”: EC50<1 μM; “B”: 1 μM≤EC50≤10 μM and “C”: EC50>10 μM; NT: not tested.

NCI-H226 = test: Mesothelioma cell line proliferation assay (ATPlite), NCI-H226; details: Homo sapiens, 144 h; NCI-H226 mesothelioma cells, 6 days incubation, ATPlite cell viability
Procedure: as §1, §2

SMILES	IC50 ([1]; Homo sapiens, HEK-293T)	IC50 [1]	EC50 (NCI-H2052)	EC50 (NCI-H226)
OCCNC1CCc2ccccc2N(c2ccc(C(F)(F)F)cc2)C1 (single isomer, unassigned) [Cpd. No. 003-En1, (R)- or (S)-2-((1-(4-(trifluoromethyl)phenyl)-2,3,4,5-tetrahydro-1H-benzo[b]azepin-3-yl)amino)ethan-1-ol]	1000 to 20000 nM			
OCCNC1CCc2ccccc2N(c2ccc(C(F)(F)F)cc2)C1 (single isomer, unassigned) [Cpd. No. 003-En2, (R)- or (S)-2-((1-(4-(trifluoromethyl)phenyl)-2,3,4,5-tetrahydro-1H-benzo[b]azepin-3-yl)amino)ethan-1-ol]		1000 to 20000 nM		
C=CC(=O)NC1CCc2ccccc2N(c2ccc(C(F)(F)F)cc2)C1 (single isomer, unassigned) [Cpd. No. 008-En1, (R)- or (S)-N-(1-(4-(trifluoromethyl)phenyl)-2,3,4,5-tetrahydro-1H-benzo[b]azepin-3-yl)acrylamide]	< 1000 nM			
C=CC(=O)NC1CCc2ccccc2N(c2ccc(C(F)(F)F)cc2)C1 (single isomer, unassigned) [Cpd. No. 008-En2, (R)- or (S)-N-(1-(4-(trifluoromethyl)phenyl)-2,3,4,5-tetrahydro-1H-benzo[b]azepin-3-yl)acrylamide]		< 1000 nM		
NC1CCc2ccccc2N(c2ccc(C(F)(F)F)cc2)C1 (stereo not drawn) [Cpd. No. 001, 1-(4-(trifluoromethyl)phenyl)-2,3,4,5-tetrahydro-1H-benzo[b]azepin-3-amine]	1000 to 20000 nM			
NC1CCc2ccccc2N(c2ccc(C(F)(F)F)cc2)C1=O (stereo not drawn) [Cpd. No. 002, 3-amino-1-(4-(trifluoromethyl)phenyl)-1,3,4,5-tetrahydro-2H-benzo[b]azepin-2-one]	> 20000 nM			
OCCNC1CCc2ccccc2N(c2ccc(C(F)(F)F)cc2)C1 (stereo not drawn) [Cpd. No. 003, 2-((1-(4-(trifluoromethyl)phenyl)-2,3,4,5-tetrahydro-1H-benzo[b]azepin-3-yl)amino)ethan-1-ol]	1000 to 20000 nM		> 10000 nM	> 10000 nM
O=C1C(NCCO)CCc2ccccc2N1c1ccc(C(F)(F)F)cc1 (stereo not drawn) [Cpd. No. 004, 3-((2-hydroxyethyl)amino)-1-(4-(trifluoromethyl)phenyl)-1,3,4,5-tetrahydro-2H-benzo[b]azepin-2-one]	1000 to 20000 nM			
OCCCNC1CCc2ccccc2N(c2ccc(C(F)(F)F)cc2)C1 (stereo not drawn) [Cpd. No. 005, 3-((1-(4-(trifluoromethyl)phenyl)-2,3,4,5-tetrahydro-1H-benzo[b]azepin-3-yl)amino)propan-1-ol]	1000 to 20000 nM			
O=C(O)CCNC1CCc2ccccc2N(c2ccc(C(F)(F)F)cc2)C1 (stereo not drawn) [Cpd. No. 006, 3-((1-(4-(trifluoromethyl)phenyl)-2,3,4,5-tetrahydro-1H-benzo[b]azepin-3-yl)amino)propanoic acid]	> 20000 nM			
O=C1C(NCCCO)CCc2ccccc2N1c1ccc(C(F)(F)F)cc1 (stereo not drawn) [Cpd. No. 007, 3-((3-hydroxypropyl)amino)-1-(4-(trifluoromethyl)phenyl)-1,3,4,5-tetrahydro-2H-benzo[b]azepin-2-one]	> 20000 nM			
C=CC(=O)NC1CCc2ccccc2N(c2ccc(C(F)(F)F)cc2)C1 (stereo not drawn) [Cpd. No. 008, N-(1-(4-(trifluoromethyl)phenyl)-2,3,4,5-tetrahydro-1H-benzo[b]azepin-3-yl)acrylamide]	1000 to 20000 nM		< 1000 nM	< 1000 nM
CCC(=O)NC1CCc2ccccc2N(c2ccc(C(F)(F)F)cc2)C1 (stereo not drawn) [Cpd. No. 009, N-(1-(4-(trifluoromethyl)phenyl)-2,3,4,5-tetrahydro-1H-benzo[b]azepin-3-yl)propionamide]	1000 to 20000 nM			
C=CC(=O)NC1CCc2ccccc2N(c2ccc(C(F)(F)F)cc2)C1=O (stereo not drawn) [Cpd. No. 010, N-(2-oxo-1-(4-(trifluoromethyl)phenyl)-2,3,4,5-tetrahydro-1H-benzo[b]azepin-3-yl)acrylamide]	> 20000 nM			
O=C1CCCN(c2ccc(C(F)(F)F)cc2)c2ccc(NCCO)cc21 [Cpd. No. 011, 7-((2-hydroxyethyl)amino)-1-(4-(trifluoromethyl)phenyl)-1,2,3,4-tetrahydro-5H-benzo[b]azepin-5-one]	1000 to 20000 nM			
O=C1CCCN(c2ccc(C(F)(F)F)cc2)c2ccc(NCCCO)cc21 [Cpd. No. 012, 7-((3-hydroxypropyl)amino)-1-(4-(trifluoromethyl)phenyl)-1,2,3,4-tetrahydro-5H-benzo[b]azepin-5-one]	> 20000 nM			
C=CC(=O)NC1Cc2ccccc2N(c2ccc(C(F)(F)F)cc2)C1=O (stereo not drawn) [Cpd. No. 013, N-(2-oxo-1-(4-(trifluoromethyl)phenyl)-1,2,3,4-tetrahydroquinolin-3-yl)acrylamide]	< 1000 nM		< 1000 nM	< 1000 nM
C=CC(=O)NC1Cc2c(F)cccc2N(c2ccc(C(F)(F)F)cc2)C1=O (stereo not drawn) [Cpd. No. 014, N-(5-fluoro-2-oxo-1-(4-(trifluoromethyl)phenyl)-1,2,3,4-tetrahydroquinolin-3-yl)acrylamide]	< 1000 nM		< 1000 nM	< 1000 nM
C=CC(=O)NC1Cc2cnccc2N(c2ccc(C(F)(F)F)cc2)C1=O (stereo not drawn) [Cpd. No. 015, N-(2-oxo-1-(4-(trifluoromethyl)phenyl)-1,2,3,4-tetrahydro-1,6-naphthyridin-3-yl)acrylamide]	1000 to 20000 nM			
